Results on six compounds are retold here after paper PMC10383271.

The test system of series [1] is normal human dermal fibroblasts (NHDF). Kind of series: MTT assay, viability of NHDF cell culture (ISO 10993 part 5). It is filed as cell-based. Particulars: NHDF cell cultures, 24 h incubation; for IC50: Homo sapiens, MTT, mean (± SD), n = 5. The procedure: The viability of the normal human dermal fibroblasts (NHDF) cell culture after 24 h incubation with the tested compounds 5a-c-7a-c was assessed by carrying out the MTT assay. This test was performed according to ISO 10993 part 5, Appendix C. For all tested compounds, the IC50 values were calculated using four-parameter logistics. Normal human dermal fibroblasts (NHDF) were purchased from the American Type Culture Collection (ATCC) for cytotoxicity evaluation of the tested compounds. The cells were grown in Dulbecco's Modified Eagle Medium DMEM with […] glucose without phenol red supplemented with 10% FBS and 2 mM L-glutamine, and 25 μg/mL gentamicin. The NHDF cells were cultured under standard conditions (5% CO2, 37 °C, and 95% humidity) with evaluation morphology and confluence at least twice a week. For the assay, the cells were used only in a logarithmic growth phase, and the TrypLE solution was used for 2 min at 37 °C to detach cells. Then, the TrypLE solution was inactivated by adding a culture medium, and the suspension of cells was collected into a tube and centrifuged for 5 min at 1000 rpm. Then, the supernatant was removed, fresh medium was added, and the pellet was resuspended and calculated using the […] chamber. The suspension of cells was prepared to allow seeding 10,000 cells/well density and incubated for 24 h to regenerate in CO2-incubator. The tested compounds were dissolved in DMSO to a final concentration of 10 mM and stored at -20 °C. Before use, the compound solution was kept at room temperature until thawing, and then, samples with 3 different concentrations of compounds were prepared (100 μM, 50 μM, and 10 μM) for each compound. The tested concentrations of compounds were prepared in a culture medium. […] The evaluation of the cytotoxicity of the newly synthesized compounds was carried out in accordance with the ISO 10,993 part V standard by performing the MTT test. After seeding at a density of 10,000 cells per well and adhering overnight, the NHDF cells were treated with the test compounds for 24 h in a CO2 incubator. The supernatant was then removed, the cells were washed with PBS, a 1mg/mL solution of MTT dissolved in MEM was added, and the cultures were re-incubated for 2 h in a CO2 incubator. The medium was then removed, and for a further 30 min, the formazan crystals were dissolved in 100 μL of isopropanol. The absorbance was measured with a Varioskan Go microplate reader at a wavelength of 570 nm. […] For enzyme assays, the IC50 was calculated according to the procedure provided by the kit manufacturer. The significance was set at p < 0.05. Based on the tests performed, the test power was calculated to be greater than 80%.

The target of another series is T1, 15-LOX (Glycine max, UniProt P08170).
T1 sequence (P08170 1-839): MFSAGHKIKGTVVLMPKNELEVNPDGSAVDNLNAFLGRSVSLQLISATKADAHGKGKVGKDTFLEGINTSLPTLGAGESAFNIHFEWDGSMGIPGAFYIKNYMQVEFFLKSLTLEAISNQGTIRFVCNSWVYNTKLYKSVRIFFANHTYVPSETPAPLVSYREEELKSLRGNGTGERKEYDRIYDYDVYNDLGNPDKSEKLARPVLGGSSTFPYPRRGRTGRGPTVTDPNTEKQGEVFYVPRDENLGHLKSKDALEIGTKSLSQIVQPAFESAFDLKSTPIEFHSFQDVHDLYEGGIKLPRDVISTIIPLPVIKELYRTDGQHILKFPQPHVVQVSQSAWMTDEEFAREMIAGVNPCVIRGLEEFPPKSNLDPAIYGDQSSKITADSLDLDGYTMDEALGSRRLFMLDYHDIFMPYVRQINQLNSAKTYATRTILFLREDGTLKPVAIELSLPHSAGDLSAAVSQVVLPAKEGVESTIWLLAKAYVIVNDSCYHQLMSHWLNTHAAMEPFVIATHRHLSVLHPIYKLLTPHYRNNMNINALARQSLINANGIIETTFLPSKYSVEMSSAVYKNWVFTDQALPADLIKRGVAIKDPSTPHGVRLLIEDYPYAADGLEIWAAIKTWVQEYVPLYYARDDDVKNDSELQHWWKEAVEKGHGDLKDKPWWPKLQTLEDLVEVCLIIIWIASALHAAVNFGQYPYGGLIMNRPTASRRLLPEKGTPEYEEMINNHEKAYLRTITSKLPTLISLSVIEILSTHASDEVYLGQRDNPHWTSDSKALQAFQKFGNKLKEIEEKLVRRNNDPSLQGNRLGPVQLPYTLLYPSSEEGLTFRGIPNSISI
Briefly: 15-LOX inhibition, Cayman's Lipoxygenase Inhibitor Screening Assay Kit.

In the next series the target is T2, COX-1 (Ovis aries, UniProt P05979).
T2 sequence (P05979 25-600): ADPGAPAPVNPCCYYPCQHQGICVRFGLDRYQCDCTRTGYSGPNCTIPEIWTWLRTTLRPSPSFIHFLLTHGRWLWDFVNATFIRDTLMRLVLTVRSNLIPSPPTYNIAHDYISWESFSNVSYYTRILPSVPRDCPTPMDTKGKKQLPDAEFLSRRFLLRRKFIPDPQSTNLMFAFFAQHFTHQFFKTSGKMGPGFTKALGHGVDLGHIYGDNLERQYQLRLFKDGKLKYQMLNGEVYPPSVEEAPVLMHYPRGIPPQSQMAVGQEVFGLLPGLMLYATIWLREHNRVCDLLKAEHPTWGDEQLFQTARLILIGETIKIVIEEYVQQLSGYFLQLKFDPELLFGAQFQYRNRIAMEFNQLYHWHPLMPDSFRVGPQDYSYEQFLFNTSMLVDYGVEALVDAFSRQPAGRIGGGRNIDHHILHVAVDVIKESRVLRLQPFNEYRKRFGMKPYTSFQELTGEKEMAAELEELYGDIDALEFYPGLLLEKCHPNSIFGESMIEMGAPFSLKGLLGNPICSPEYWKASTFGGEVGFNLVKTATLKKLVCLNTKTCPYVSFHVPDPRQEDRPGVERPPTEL
Briefly: COX-1 inhibition, Cayman's COX Colorimetric Inhibitor Screening Assay Kit.

Another series addresses T3, COX-2 (Homo sapiens, UniProt P35354).
T3 sequence (P35354 18-604): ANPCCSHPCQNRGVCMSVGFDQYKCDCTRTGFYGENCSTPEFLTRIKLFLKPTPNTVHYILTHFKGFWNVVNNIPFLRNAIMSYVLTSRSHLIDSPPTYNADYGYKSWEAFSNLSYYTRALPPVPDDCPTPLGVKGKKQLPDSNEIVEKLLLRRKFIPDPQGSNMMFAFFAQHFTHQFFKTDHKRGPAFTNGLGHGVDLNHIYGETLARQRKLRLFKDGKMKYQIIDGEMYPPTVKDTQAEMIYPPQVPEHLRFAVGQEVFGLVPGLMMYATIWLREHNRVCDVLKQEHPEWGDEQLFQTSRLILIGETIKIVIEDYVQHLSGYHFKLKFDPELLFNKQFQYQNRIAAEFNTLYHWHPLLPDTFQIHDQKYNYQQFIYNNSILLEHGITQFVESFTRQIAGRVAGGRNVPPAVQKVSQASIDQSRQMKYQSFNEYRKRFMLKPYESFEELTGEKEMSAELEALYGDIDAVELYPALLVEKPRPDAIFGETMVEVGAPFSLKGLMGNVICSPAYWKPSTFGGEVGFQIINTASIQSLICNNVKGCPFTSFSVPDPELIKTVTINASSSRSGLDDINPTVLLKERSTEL
Kind of series: COX-2 inhibition, Cayman's COX Colorimetric Inhibitor Screening Assay Kit. Particulars: for Selectivity Index (SI): COX-2 IC50/COX-1 IC50.

With `Cc1ccc(/C=N/NC(=O)COc2nn(C)c(=O)c3c(C)n(-c4ccccc4)c(C)c23)cc1` [Compound 7b, N-[(Z/E)-p-tolylmethyleneamino]-2-(3,5,7-trimethyl-4-oxo-6-phenyl-pyrrolo[3,4-d]pyridazin-1-yl)oxy-acetamide], the melting point is 271 to 272 °C. Besides, in series [1], inhibition was half-maximal at 181 ± 8.7 µM (IC50) and the “Cell Morphology in Culture” value is on record as “Normal morphology of fibroblasts-elongated cells, single granular cells in 1 of 10 assessed fields of view”. The same compound had a concentration for half-maximal inhibition (IC50) on 15-LOX of 13.7 ± 0.07 µM. 91.5 ± 5.1 µM corresponded to half-maximal inhibition on COX-1 (IC50). In addition, on COX-2, 24.5 ± 2.1 µM corresponded to half-maximal inhibition (IC50) and the “Selectivity Index (SI)” value is on record as 0.27.

`CCCCn1c(C)c2c(OCC(=O)N/N=C/c3ccccc3O)nn(C)c(=O)c2c1C` [Compound 6a, 2-(6-butyl-3,5,7-trimethyl-4-oxo-pyrrolo[3,4-d]pyridazin-1-yl)oxy-N-[(Z/E)-(2-hydroxyphenyl)methyleneamino]acetamide] had a melting point of 225 to 227 °C. In addition, in series [1], 88.7 ± 4.1 µM corresponded to half-maximal inhibition (IC50) and the “Cell Morphology in Culture” value is given as “Cells with an elongated shape characteristic of fibroblasts, the granularities were observed in 3–5 fields of view from 10 analyzed fields”. For the same compound, at 15-LOX, it took 13.6 ± 0.03 µM to reach half-maximal inhibition (IC50). The compound further registered an IC50 on COX-1 of 89.2 ± 4.1 µM. For the same compound, on COX-2, the half-maximal inhibitory concentration (IC50) came out at 16.4 ± 1.1 µM and the “Selectivity Index (SI)” value was 0.18.

`CCCCn1c(C)c2c(OCC(=O)N/N=C/c3ccc(C)cc3)nn(C)c(=O)c2c1C` [Compound 7a, 2-(6-butyl-3,5,7-trimethyl-4-oxo-pyrrolo[3,4-d]pyridazin-1-yl)oxy-N-[(Z/E)-p-tolylmethyleneamino]acetamide] gave a melting point of 209 to 211 °C. Also, in series [1], 116 ± 3.6 µM corresponded to half-maximal inhibition (IC50) and the “Cell Morphology in Culture” value is given as “Cells with an elongated shape characteristic of fibroblasts, the granularities were observed in 3–5 fields of view from 10 analyzed fields”. Inhibition against 15-LOX was half-maximal at 15.3 ± 2.1 µM (IC50). This compound also displayed an IC50 on COX-1 of 93.8 ± 4.2 µM. For the same compound, on COX-2, the IC50 amounted to 16.1 ± 1.8 µM and the “Selectivity Index (SI)” value was found to be 0.17.

`Cc1ccc(/C=N/NC(=O)COc2nn(C)c(=O)c3c(C)n(-c4cccc(Cl)c4)c(C)c23)cc1` [Compound 7c, 2-[6-(3-chlorophenyl)-3,5,7-trimethyl-4-oxo-pyrrolo[3,4-d]pyridazin-1-yl]oxy-N-[(Z/E)-p-tolylmethyleneamino]acetamide] showed a melting point of 248 to 250 °C. Also, in series [1], the IC50 worked out at 81.6 ± 5.1 µM and the “Cell Morphology in Culture” value is listed as “Cells with an elongated shape characteristic of fibroblasts, the granularities were observed in 3–5 fields of view from 10 analyzed fields”. On 15-LOX, this compound gave a concentration for half-maximal inhibition (IC50) of 13.3 ± 0.02 µM. Besides, the “effect on COX-1 isoform (in words)” value at COX-1 (enzymatic assay) is “does not affect the COX-1 isoform”. At COX-2, this compound registered an IC50 of 22.7 ± 2.5 µM.

`Cc1c2c(OCC(=O)N/N=C/c3ccccc3O)nn(C)c(=O)c2c(C)n1-c1cccc(Cl)c1` [Compound 6c, 2-[6-(3-chlorophenyl)-3,5,7-trimethyl-4-oxo-pyrrolo[3,4-d]pyridazin-1-yl]oxy-N-[(Z/E)-(2-hydroxyphenyl)methyleneamino]acetamide] displayed a melting point of 230 to 232 °C. Also, in series [1], inhibition was half-maximal at 211 ± 9.6 µM (IC50) and the “Cell Morphology in Culture” value is “Normal morphology of fibroblasts–elongated cells, single granular cells in 1 of 10 assessed fields of view”. In addition, half-maximal inhibition at 15-LOX (IC50) was put at 14.7 ± 0.02 µM. The IC50 against COX-1 came to 76.8 ± 6 µM. Also, at COX-2, inhibition was half-maximal at 9.8 ± 3.1 µM (IC50) and the “Selectivity Index (SI)” value stood at 0.13.

Compound `Cc1c2c(OCC(=O)N/N=C/c3ccccc3O)nn(C)c(=O)c2c(C)n1-c1ccccc1` [Compound 6b, N-[(Z/E)-(2-hydroxyphenyl)methyleneamino]-2-(3,5,7-trimethyl-4-oxo-6-phenyl-pyrrolo[3,4-d]pyridazin-1-yl)oxy-acetamide] showed a melting point of 214 to 217 °C. In addition, in series [1], the IC50 is 80.7 ± 1.9 µM and the “Cell Morphology in Culture” value is on record as “Cells with an elongated shape characteristic of fibroblasts, the granularities were observed in 3–5 fields of view from 10 analyzed fields”. Further, on 15-LOX, half-maximal inhibition (IC50) required 13.7 ± 0.03 µM. On COX-1, this compound returned a half-inhibitory concentration (IC50) of 97.7 ± 6.8 µM. Also, at COX-2, the half-maximal inhibitory concentration (IC50) stood at 27.7 ± 2.5 µM and the “Selectivity Index (SI)” value came out at 0.28.
